Experimental data from paper PMC8079033, “Design, synthesis, anticancer evaluation, and molecular modelling studies of novel tolmetin derivatives as potential VEGFR-2 inhibitors and apoptosis inducers” (Journal of Enzyme Inhibition and Medicinal Chemistry, 2021).

What was measured:
[1] = tested on: A498; assay: NCI 60-cell line one-dose antiproliferative screen (SRB); format: cell-based; conditions: Homo sapiens, read-out: growth inhibition % (GI%)
Experimental: (§1) Anticancer activity screening of the newly synthesised compounds was measured in vitro utilising 60 different human tumour cell lines provided by US National Cancer Institute according to previously reported standard procedure[41–43] as follows: Cells are inoculated into 96-well microtiter plates in 100 ml. After cell inoculation, the microtiter plates are incubated at 37 °C, 5% CO2, 95% air, and 100% relative humidity for 24 h prior to addition of experimental compounds. After 24 h, two plates of each cell line are fixed in situ with TCA, to represent a measurement of the cell population for each cell line at the time of compound addition (Tz). Experimental compounds are solubilised in dimethyl sulfoxide at 400-fold the desired final maximum test concentration and stored frozen prior to use. At the time of compound addition, an aliquot of frozen concentrate is thawed and diluted to twice the desired final maximum test concentration with a complete medium containing […] gentamicin. Aliquots of […] of the compounds dilutions are added to the appropriate microtiter wells already containing 100 ml of medium, resulting in the required final compound concentration. Following compound addition, the plates are incubated for an additional 48 h at 37 °C, 5% CO2, 95% air, and 100% relative humidity. For adherent cells, the assay is terminated by the addition of cold trichloroacetic acid (TCA). Cells are fixed in situ by the gentle addition of 50 ml of cold 50% (w/v) TCA (final concentration, 10% TCA) and incubated for […] at 4 °C. The supernatant is discarded, and the plates are washed five times with tap water and air-dried. Sulforhodamine B (SRB) solution (100 ml) at 0.4% (w/v) in 1% acetic acid is added to each well, and plates are incubated for 10 min at room temperature. After staining, the unbound dye is removed by washing five times with 1% acetic acid and the plates are air-dried. The bound stain is subsequently solubilised with a 10 mM trizma base, and the absorbance is read on an automated plate reader at a wavelength of 515 nm. For suspension cells, the methodology is the same except that the assay is terminated by fixing settled cells at the bottom of the wells by gently adding 50 ml of 80% TCA (final concentration, 16% TCA). Using the absorbance measurements [time zero, (Tz), control growth, (C), and test growth in the presence of compound (Ti)], the percentage growth is calculated for each compound. The One-dose data are reported as a mean graph of the percent growth of treated cells. The reported number is growth relative to the no-compound control, and relative to the time zero number of cells. This allows the detection of both growth inhibition and lethality.
(§2) Fifteen newly synthesised compounds were tested for their in vitro antiproliferative activity by the National Cancer Institute (NCI), Maryland, USA[50], under the Developmental Therapeutic Program (DTP)[41]^,[43]^,[51]^,[52]. The tested compounds were evaluated at a concentration of 10 µM on a panel of 60 tumour cell lines representing leukaemia and non-small cell lung, colon, CNS, melanoma, ovarian, renal, prostate, and breast cancers. The antiproliferative activity was presented by the NCI as percent growth of the treated cells and is presented in Table 1 as growth inhibition percentage (GI%) achieved by the tested compounds.

[2] = tested on: A549/ATCC; assay: as above; format: cell-based; conditions: Homo sapiens, read-out: growth inhibition % (GI%)
Experimental: as §1, §2

[3] = tested on: ACHN; assay: as above; format: cell-based; conditions: Homo sapiens, read-out: growth inhibition % (GI%)
Experimental: as §1, §2

[4] = tested on: BT-5; assay: as above; format: cell-based; conditions: Homo sapiens, read-out: growth inhibition % (GI%)
Experimental: as §1, §2

[5] = tested on: CAKI-1; assay: as above; format: cell-based; conditions: Homo sapiens, read-out: growth inhibition % (GI%)
Experimental: as §1, §2

[6] = tested on: CCRF-CEM; assay: as above; format: cell-based; conditions: Homo sapiens, read-out: growth inhibition % (GI%)
Experimental: as §1, §2

[7] = tested on: EKVX; assay: as above; format: cell-based; conditions: Homo sapiens, read-out: growth inhibition % (GI%)
Experimental: as §1, §2

[8] = tested on: HCT-116; assay: as above; format: cell-based; conditions: Homo sapiens, read-out: growth inhibition % (GI%)
Experimental: as §1, §2

[9] = tested on: HCT-15; assay: as above; format: cell-based; conditions: Homo sapiens, read-out: growth inhibition % (GI%)
Experimental: as §1, §2

[10] = tested on: HL-60 (TB); assay: as above; format: cell-based; conditions: Homo sapiens, read-out: growth inhibition % (GI%)
Experimental: as §1, §2

[11] = tested on: HOP-62; assay: as above; format: cell-based; conditions: Homo sapiens, read-out: growth inhibition % (GI%)
Experimental: as §1, §2

[12] = tested on: HS 578 T; assay: as above; format: cell-based; conditions: Homo sapiens, read-out: growth inhibition % (GI%)
Experimental: as §1, §2

[13] = tested on: IGROV1; assay: as above; format: cell-based; conditions: Homo sapiens, IGROV-1, read-out: growth inhibition % (GI%)
Experimental: as §1, §2

[14] = tested on: K-562; assay: as above; format: cell-based; conditions: Homo sapiens, K562, read-out: growth inhibition % (GI%)
Experimental: as §1, §2

[15] = tested on: KM12; assay: as above; format: cell-based; conditions: Homo sapiens, read-out: growth inhibition % (GI%)
Experimental: as §1, §2

[16] = tested on: LOX IMVI; assay: as above; format: cell-based; conditions: Homo sapiens, read-out: growth inhibition % (GI%)
Experimental: as §1, §2

[17] = tested on: M14; assay: as above; format: cell-based; conditions: Homo sapiens, read-out: growth inhibition % (GI%)
Experimental: as §1, §2

[18] = tested on: MCF7; assay: as above; format: cell-based; conditions: Homo sapiens, read-out: growth inhibition % (GI%)
Experimental: as §1, §2

[19] = tested on: MDA-MB-231/ATCC; assay: as above; format: cell-based; conditions: Homo sapiens, read-out: growth inhibition % (GI%)
Experimental: as §1, §2

[20] = tested on: MDA-MB-435; assay: as above; format: cell-based; conditions: Homo sapiens, read-out: growth inhibition % (GI%)
Experimental: as §1, §2

[21] = tested on: MOLT-4; assay: as above; format: cell-based; conditions: Homo sapiens, read-out: growth inhibition % (GI%)
Experimental: as §1, §2

[22] = tested on: NCI-H226; assay: as above; format: cell-based; conditions: Homo sapiens, read-out: growth inhibition % (GI%)
Experimental: as §1, §2

[23] = tested on: NCI-H23; assay: as above; format: cell-based; conditions: Homo sapiens, read-out: growth inhibition % (GI%)
Experimental: as §1, §2

[24] = tested on: NCI-H322M; assay: as above; format: cell-based; conditions: Homo sapiens, read-out: growth inhibition % (GI%)
Experimental: as §1, §2

[25] = tested on: NCI-H522; assay: as above; format: cell-based; conditions: Homo sapiens, read-out: growth inhibition % (GI%)
Experimental: as §1, §2

[26] = tested on: NCI/ADR-RES; assay: as above; format: cell-based; conditions: Homo sapiens, read-out: growth inhibition % (GI%)
Experimental: as §1, §2

[27] = tested on: OVCAR-8; assay: as above; format: cell-based; conditions: Homo sapiens, read-out: growth inhibition % (GI%)
Experimental: as §1, §2

[28] = tested on: PC-3; assay: as above; format: cell-based; conditions: Homo sapiens, read-out: growth inhibition % (GI%)
Experimental: as §1, §2

[29] = tested on: SF-268; assay: as above; format: cell-based; conditions: Homo sapiens, read-out: growth inhibition % (GI%)
Experimental: as §1, §2

[30] = tested on: SK-MEL-28; assay: as above; format: cell-based; conditions: Homo sapiens, read-out: growth inhibition % (GI%)
Experimental: as §1, §2

[31] = tested on: SK-MEL-2; assay: as above; format: cell-based; conditions: Homo sapiens, read-out: growth inhibition % (GI%)
Experimental: as §1, §2

[32] = tested on: SK-MEL-5; assay: as above; format: cell-based; conditions: Homo sapiens, read-out: growth inhibition % (GI%)
Experimental: as §1, §2

[33] = tested on: SK-OV-3; assay: as above; format: cell-based; conditions: Homo sapiens, read-out: growth inhibition % (GI%)
Experimental: as §1, §2

[34] = tested on: SN 12 C; assay: as above; format: cell-based; conditions: Homo sapiens, SN12C, read-out: growth inhibition % (GI%)
Experimental: as §1, §2

[35] = tested on: SNB-19; assay: as above; format: cell-based; conditions: Homo sapiens, read-out: growth inhibition % (GI%)
Experimental: as §1, §2

[36] = tested on: SNB-75; assay: as above; format: cell-based; conditions: Homo sapiens, read-out: growth inhibition % (GI%)
Experimental: as §1, §2

[37] = tested on: SW-620; assay: as above; format: cell-based; conditions: Homo sapiens, read-out: growth inhibition % (GI%)
Experimental: as §1, §2

[38] = tested on: T-47D; assay: as above; format: cell-based; conditions: Homo sapiens, T47D, read-out: growth inhibition % (GI%)
Experimental: as §1, §2

[39] = tested on: U251; assay: as above; format: cell-based; conditions: Homo sapiens, U-251, read-out: growth inhibition % (GI%)
Experimental: as §1, §2

[40] = tested on: UO-31; assay: as above; format: cell-based; conditions: Homo sapiens, read-out: growth inhibition % (GI%)
Experimental: as §1, §2

**Q.** For `Cc1ccc(C(=O)c2ccc(CC(=O)NN3C(=O)c4ccccc4C3=O)n2C)cc1` [Compound 7c, N-(1,3-Dioxoisoindolin-2-yl)-2–(1-methyl-5–(4-methylbenzoyl)-1H-pyrrol-2-yl) acetamide], which inhibition at 10 µM [1] is on record?
**A.** 13.3%

**Q.** And the inhibition at 10 µM [2]?
**A.** 14%

**Q.** And the inhibition at 10 µM [3]?
**A.** < 10%

**Q.** What about the inhibition at 10 µM [4] of the same compound?
**A.** < 10%

**Q.** What about the inhibition at 10 µM [5] of the same compound?
**A.** < 10%

**Q.** What about the inhibition at 10 µM [6] of the same compound?
**A.** < 10%

**Q.** And the inhibition at 10 µM [7]?
**A.** 24.5%

**Q.** What about the inhibition at 10 µM [8] of the same compound?
**A.** < 10%

**Q.** What about the inhibition at 10 µM [9] of the same compound?
**A.** < 10%

**Q.** And the inhibition at 10 µM [10]?
**A.** < 10%

**Q.** What about the inhibition at 10 µM [11] of the same compound?
**A.** < 10%

**Q.** What about the inhibition at 10 µM [12] of the same compound?
**A.** < 10%

**Q.** And the inhibition at 10 µM [13]?
**A.** 14.8%

**Q.** And the inhibition at 10 µM [14]?
**A.** < 10%

**Q.** And the inhibition at 10 µM [15]?
**A.** < 10%

**Q.** What about the inhibition at 10 µM [16] of the same compound?
**A.** 10.2%

**Q.** What about the inhibition at 10 µM [17] of the same compound?
**A.** < 10%

**Q.** What about the inhibition at 10 µM [18] of the same compound?
**A.** < 10%

**Q.** And the inhibition at 10 µM [19]?
**A.** < 10%

**Q.** What about the inhibition at 10 µM [20] of the same compound?
**A.** < 10%

**Q.** And the inhibition at 10 µM [21]?
**A.** 10.6%

**Q.** What about the inhibition at 10 µM [22] of the same compound?
**A.** < 10%

**Q.** And the inhibition at 10 µM [23]?
**A.** < 10%

**Q.** What about the inhibition at 10 µM [24] of the same compound?
**A.** < 10%

**Q.** And the inhibition at 10 µM [25]?
**A.** 14.4%

**Q.** And the inhibition at 10 µM [26]?
**A.** < 10%

**Q.** What about the inhibition at 10 µM [27] of the same compound?
**A.** < 10%

**Q.** And the inhibition at 10 µM [28]?
**A.** < 10%

**Q.** What about the inhibition at 10 µM [29] of the same compound?
**A.** < 10%

**Q.** What about the inhibition at 10 µM [30] of the same compound?
**A.** < 10%

**Q.** And the inhibition at 10 µM [31]?
**A.** < 10%

**Q.** And the inhibition at 10 µM [32]?
**A.** < 10%

**Q.** And the inhibition at 10 µM [33]?
**A.** < 10%

**Q.** And the inhibition at 10 µM [34]?
**A.** < 10%

**Q.** And the inhibition at 10 µM [35]?
**A.** < 10%

**Q.** And the inhibition at 10 µM [36]?
**A.** 17.9%

**Q.** And the inhibition at 10 µM [37]?
**A.** < 10%

**Q.** And the inhibition at 10 µM [38]?
**A.** 25.5%

**Q.** And the inhibition at 10 µM [39]?
**A.** < 10%

**Q.** And the inhibition at 10 µM [40]?
**A.** 27.3%

**Q.** And the melting point?
**A.** > 300 °C
